US20220380375A1, “SUBSTITUTED AROMATIC FUSED RING DERIVATIVE AND COMPOSITION COMPRISING SAME, AND USE THEREOF” (Shenzhen TargetRx, Inc., priority 2019, published 2022)

Assays:
Format in all cases: cell-based
[1] = system: Ba/F3 FLT3-ITD^F691L cells; assay: Cytotoxicity assay (CellTiter-Glo), Ba/F3 FLT3-ITD F691L; conditions: ratio of Ba/F3 parental IC50 to Ba/F3 FLT3-ITD^F691L IC50
Method: (§1) Inhibitory effects of example compounds on the activity of Ba/F3 parental generation, Ba/F3 KIF5B-RET, Ba/F3 KIF5B-RET^V804M, Ba/F3 KIF5B-RET^V804L, Ba/F3 KIF5B-RET^G810R, Ba/F3 FLT3-ITD, Ba/F3 FLT3-ITD^D835Y, Ba/F3 FLT3-ITD^F691L cells were determined.
(§2) Materials and reagents: fetal bovine serum FBS (GIBCO, Cat #10099141), CellTiter-Glo® Luminescent Cell Viability Assay kit (Promega, Cat #G7572), 96-well black-wall clear flat-bottom plate (Corning®, Cat #3603).
(§3) 1. Cells in the logarithmic growth phase were harvested and counted with a […]. Cell viability was detected by a trypan blue exclusion method, ensuring that cell viability was 90% or more; 2. Cell concentration was adjusted to about 3000 cells/well; 90 μl of cell suspension was added to each well of the 96-well plate; 3. The cells in the 96-well plate were incubated overnight under the condition of 37° C., 5% CO2, and 95% humidity.
(§4) 1. A series of compound solutions were formulated by 3.16-fold serial dilution starting from a concentration of 10 μM, resulting in 9 concentrations. 10 μL of the compound solutions were added in each well of the 96-well plate seeded with cells in triplicate for each compound concentration; 2. The cells in the 96-well plate added with compounds were further incubated under the condition of 37° C., 5% CO2, and 95% humidity for 72 hrs, and then CTG analysis was carried out.
(§5) 1. CTG reagent was thawed, and the cell plate was equilibrated at room temperature for 30 minutes; 2. An equal volume […] of CTG solution was added to each well; 3. The cell plate was shaken on an orbital shaker for 5 minutes to lyse the cells; 4. The cell plate was placed at RT for 20 minutes to stabilize the luminescence signal; 5. Luminescence value was read.
(§6) Data were Analyzed by GraphPad Prism 5.0 Software, and Fitted by Nonlinear S-Curve Regression to obtain a dose-response curve, from which IC50 values were calculated.
(§7) Cell survival rate (%)=(luminescence value of drug to be tested−luminescence value of culture medium control)/(luminescence value of cell control−luminescence value of culture medium control)×100%.

[2] = system: Ba/F3 KIF5B-RET^V804L cells; assay: Cytotoxicity assay (CellTiter-Glo), Ba/F3 KIF5B-RET V804L; conditions: ratio of Ba/F3 parental IC50 to Ba/F3 KIF5B-RET^V804L IC50
Method: as §1, §2, §3, §4, §5, §6, §7

[3] = target: T1, Ba/F3 KIF5B-RET^V804L cells (Homo sapiens, UniProt P07949, V804L, cells depend on it); assay: as above; conditions: CellTiter-Glo, 72 hrs; read-out: Ba/F3 KIF5B-RET^V804L IC50
T1 construct: Ba/F3 KIF5B-RET^V804L IC50 (nM); other: CellTiter-Glo, 72 hrs; fused on or other part: P33176 (Kinesin-1 heavy chain)
Method: as §1, §2, §3, §4, §5, §6, §7

[4] = target: T2, Ba/F3 FLT3-ITD^D835Y cells (Homo sapiens, UniProt P36888, D835Y, cells depend on it, form not given); assay: Cytotoxicity assay (CellTiter-Glo), Ba/F3 FLT3-ITD D835Y; conditions: CellTiter-Glo, 72 hrs; read-out: Ba/F3 FLT3-ITD^D835Y IC50
T2 construct: Ba/F3 FLT3-ITD^D835Y IC50 (nM); other: CellTiter-Glo, 72 hrs
T2 sequence (P36888 1-993 D835Y): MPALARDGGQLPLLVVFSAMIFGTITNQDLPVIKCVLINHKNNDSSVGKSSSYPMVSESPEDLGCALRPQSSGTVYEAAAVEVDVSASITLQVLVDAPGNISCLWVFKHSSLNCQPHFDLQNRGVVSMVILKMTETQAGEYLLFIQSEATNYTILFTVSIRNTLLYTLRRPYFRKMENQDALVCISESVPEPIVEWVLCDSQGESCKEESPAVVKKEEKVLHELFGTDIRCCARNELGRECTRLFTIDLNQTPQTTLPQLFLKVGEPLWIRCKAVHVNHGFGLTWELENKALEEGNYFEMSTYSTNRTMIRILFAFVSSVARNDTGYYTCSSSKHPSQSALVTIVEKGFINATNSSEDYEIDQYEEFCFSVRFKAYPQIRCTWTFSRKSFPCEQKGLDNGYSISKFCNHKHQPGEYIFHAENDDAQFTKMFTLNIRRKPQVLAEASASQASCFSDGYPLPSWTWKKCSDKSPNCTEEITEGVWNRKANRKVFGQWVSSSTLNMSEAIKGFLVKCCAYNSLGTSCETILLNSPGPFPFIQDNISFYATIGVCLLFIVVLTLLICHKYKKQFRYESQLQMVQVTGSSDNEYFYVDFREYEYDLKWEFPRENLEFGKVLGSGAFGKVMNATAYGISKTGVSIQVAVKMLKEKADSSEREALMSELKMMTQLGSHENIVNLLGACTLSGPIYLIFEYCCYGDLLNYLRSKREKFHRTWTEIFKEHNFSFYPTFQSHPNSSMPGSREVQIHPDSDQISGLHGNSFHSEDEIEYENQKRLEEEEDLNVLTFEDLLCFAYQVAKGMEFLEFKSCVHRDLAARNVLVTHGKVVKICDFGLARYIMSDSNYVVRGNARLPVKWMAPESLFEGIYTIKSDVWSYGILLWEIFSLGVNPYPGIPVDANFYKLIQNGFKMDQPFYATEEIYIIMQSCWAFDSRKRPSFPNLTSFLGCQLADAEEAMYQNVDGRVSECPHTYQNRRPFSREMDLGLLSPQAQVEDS
Method: as §1, §2, §3, §4, §5, §6, §7

[5] = system: Ba/F3 FLT3-ITD^D835Y cells; assay: as above; conditions: ratio of Ba/F3 parental IC50 to Ba/F3 FLT3-ITD^D835Y IC50
Method: as §1, §2, §3, §4, §5, §6, §7

T1 sequence (P07949 whole entry V804L, the tested form may be a part): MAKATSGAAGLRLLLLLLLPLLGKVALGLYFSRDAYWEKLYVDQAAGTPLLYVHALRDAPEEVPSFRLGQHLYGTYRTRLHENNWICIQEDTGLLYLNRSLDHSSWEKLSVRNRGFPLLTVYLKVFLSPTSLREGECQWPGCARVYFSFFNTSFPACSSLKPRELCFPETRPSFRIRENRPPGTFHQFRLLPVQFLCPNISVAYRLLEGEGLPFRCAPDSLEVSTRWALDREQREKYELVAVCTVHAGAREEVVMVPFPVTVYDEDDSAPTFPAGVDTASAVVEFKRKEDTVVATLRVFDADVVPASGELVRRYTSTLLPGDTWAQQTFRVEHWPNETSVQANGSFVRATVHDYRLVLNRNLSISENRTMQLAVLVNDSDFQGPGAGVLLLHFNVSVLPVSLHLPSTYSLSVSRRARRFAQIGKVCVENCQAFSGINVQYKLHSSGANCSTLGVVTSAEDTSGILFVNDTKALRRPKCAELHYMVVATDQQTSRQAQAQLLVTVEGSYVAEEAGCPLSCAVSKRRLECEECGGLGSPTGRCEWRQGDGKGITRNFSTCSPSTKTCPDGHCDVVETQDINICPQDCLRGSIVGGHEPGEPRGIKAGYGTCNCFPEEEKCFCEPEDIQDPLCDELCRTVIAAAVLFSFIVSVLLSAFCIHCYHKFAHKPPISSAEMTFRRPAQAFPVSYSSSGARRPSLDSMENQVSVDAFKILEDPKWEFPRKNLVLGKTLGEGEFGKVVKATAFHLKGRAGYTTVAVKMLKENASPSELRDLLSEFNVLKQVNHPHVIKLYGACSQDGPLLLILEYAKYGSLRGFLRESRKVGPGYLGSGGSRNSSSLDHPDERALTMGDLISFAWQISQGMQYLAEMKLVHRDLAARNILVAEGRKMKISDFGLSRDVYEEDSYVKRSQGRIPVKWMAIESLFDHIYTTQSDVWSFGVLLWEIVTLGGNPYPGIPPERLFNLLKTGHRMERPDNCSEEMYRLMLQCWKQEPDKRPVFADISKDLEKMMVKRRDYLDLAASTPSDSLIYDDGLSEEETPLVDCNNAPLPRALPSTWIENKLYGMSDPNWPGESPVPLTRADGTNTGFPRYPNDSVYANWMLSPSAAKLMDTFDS

Row | Compound | Ba/F3 FLT3-ITD^F691L Selectivity on parental generation [1] | Ba/F3 KIF5B-RET^V804L Selectivity on parental generation [2] | GI50 [3] | GI50 [4] | Ba/F3 FLT3-ITD^D835Y Selectivity on parental generation [5]
1 | [2H]C([2H])([2H])C(n1cc(-c2ccc(CC(=O)Nc3cc(C(C)(C)C(F)(F)F)on3)cc2)c2c(N)ncnc21)C([2H])([2H])[2H] [Compound T-12, 2-(4-(4-amino-7-(propen-2-yl-1,1,1,3,3,d6)-7H-pyrrolo[2,3-d]pyrimidin-5-yl)phenyl)-N-(5-(1,1,1-trifluo-2-methylpropan-2-yl)isoxazol-3-yl)acetamide] | 289.7 | 132.2 | 8.11 nM | 12.3 nM | 87.2
2 | [2H]C([2H])([2H])C(n1nc(-c2ccc(CC(=O)Nc3cc(C(C)(C)C(F)(F)F)no3)cc2)c2c(N)ncnc21)C([2H])([2H])[2H] [Compound T-11, 2-(4-(4-amino-1-(propan-2-yl-1,1,1,3,3,3-d6)-1H-pyrazolo[3,4-d]pyrimidin-3-yl)phenyl)-N-(3-(1,1,1-trifluoro-2-methylpropan-2-yl)isoxazol-5-yl)acetamide] | 404.9 | 902.8 | 6.1 nM | 17.9 nM | 307.7
3 | CC(C)n1nc(-c2ccc(CC(=O)Nc3cc(C(C)(C)C(F)(F)F)no3)cc2)c2c(N)ncnc21 [Compound T-8, 2-(4-(4-amino-1-isopropyl-1H-pyrazolo[3,4-d]pyrimidin-3-yl)phenyl)-N-(3-(1,1,1-trifluoro-2-methylprop-2-yl)isoxazol-5-yl)acetamide] | 585.5 | 2403.3 | 1.53 nM | 7.34 nM | 500.9
4 | CC(C)n1nc(-c2ccc(CC(=O)Nc3cc(C(C)(C)C(F)(F)F)on3)c(F)c2)c2c(N)ncnc21 [Compound T-6, 2-(4-(4-amino-1-isopropyl-1H-pyrazolo[3,4-d]pyrimidin-3-yl)-2-fluorophenyl)-N-(5-(1,1,1-trifluoro-2-methylprop-2-yl)isoxazol-3-yl)acetamide] | 334.7 | 361.3 | 5.8 nM | 9.6 nM | 193.58
5 | CC(C)n1cc(-c2ccc(CC(=O)Nc3cc(C(C)(C)C(F)(F)F)on3)cc2)c2c(N)ncnc21 [Compound T-3, 2-(4-(4-amino-7-isopropyl-7H-pyrrolo[2,3-d]pyrimidin-5-yl)phenyl)-N-(5-(1,1,1-trifluoro-2-methylprop-2-yl)isoxazol-3-yl)acetamide] | 746.8 | 199.6 | 3.63 nM | 2.92 nM | 218.67
